Laboratory results from publication doi:10.1101/2023.10.01.560353v1 (bioRxiv, 2023).
≈ marks a conversion by molar mass, not a printed value. Peptide text beside a SMILES is read from it.

What was measured:
[1] = system: A. baumannii ATCC 19606; experiment: MIC, broth microdilution; assay type: cell-based, Acinetobacter baumannii; settings: broth microdilution in LB, 20 h at 37 °C, OD600; mean of three replicates
[2] = system: 11 clinically relevant bacterial pathogens; experiment: MIC over the panel of pathogens; assay type: cell-based; settings: Table S17; lowest MIC over the strains tested
[3] = system: A. baumannii ATCC 19606; experiment: Neutropenic thigh infection mouse model; assay type: in vivo, CD-1 mice; settings: single intraperitoneal dose at MIC, n = 6

| Molecule | Minimal Inhibitory Concentration: A. baumannii ATCC19606 [1] | MIC (lowest MIC value obtained in the antimicrobial activity assays) [2] | reduction of the bacterial load two days post-treatment [3] |
| --- | --- | --- | --- |
| CC[C@H](C)[C@H](NC(=O)[C@H](CCCCN)NC(=O)[C@H](CCCCN)NC(=O)[C@H](Cc1ccccc1)NC(=O)[C@H](Cc1ccccc1)NC(=O)[C@@H](NC(=O)[C@@H](NC(=O)[C@H](CO)NC(=O)[C@H](CCCCN)NC(=O)[C@@H](NC(=O)[C@@H](NC(=O)[C@H](Cc1c[nH]c2ccccc12)NC(=O)[C@H](CCCCN)NC(=O)[C@H](CCCCN)NC(=O)[C@@H](NC(=O)[C@H](CCC(=O)O)NC(=O)[C@H](CCCCN)NC(=O)[C@H](CC(C)C)NC(=O)[C@@H](NC(=O)[C@H](CCCCN)NC(=O)[C@H](CCCNC(=N)N)NC(=O)[C@H](CC(C)C)NC(=O)[C@H](CC(C)C)NC(=O)[C@@H](N)CCCCN)C(C)C)[C@@H](C)O)C(C)C)[C@@H](C)CC)C(C)C)C(C)C)C(=O)N[C@@H](CCCNC(=N)N)C(=O)N[C@@H](CCCCN)C(=O)O [Hesperelin-1] (H-KLLRKVLKETKKWVIKSVVFFKKIRK-OH) | 8 µmol/L | 2000 mM (≈ 6490 mg/mL) |  |
| CC[C@H](C)[C@H](N)C(=O)N[C@@H](Cc1ccccc1)C(=O)N[C@@H](CC(C)C)C(=O)N[C@@H](Cc1c[nH]cn1)C(=O)N[C@@H](CC(C)C)C(=O)N[C@@H](CCCCN)C(=O)N[C@H](C(=O)N[C@@H](CC(C)C)C(=O)N[C@@H](CCCCN)C(=O)N[C@H](C(=O)N[C@H](C(=O)N[C@@H](Cc1c[nH]cn1)C(=O)N[C@@H](CC(C)C)C(=O)N[C@@H](CC(C)C)C(=O)O)[C@@H](C)CC)[C@@H](C)CC)[C@@H](C)O [Mammuthusin-1] (H-IFLHLKTLKIIHLL-OH) |  | 4000 mM (≈ 6810 mg/mL) |  |
| CC[C@H](C)[C@H](NC(=O)[C@H](CCCCN)NC(=O)[C@H](CC(C)C)NC(=O)[C@@H](NC(=O)[C@@H](N)CCCCN)[C@@H](C)O)C(=O)N[C@H](C(=O)N[C@@H](CCCNC(=N)N)C(=O)N[C@@H](CC(C)C)C(=O)N[C@@H](CC(C)C)C(=O)N[C@@H](Cc1ccccc1)C(=O)O)[C@@H](C)CC [Mammuthusin-3] (H-KTLKIIRLLF-OH) |  | 16000 mM (≈ 19900 mg/mL) |  |
| CC[C@H](C)[C@H](NC(=O)[C@H](Cc1ccccc1)NC(=O)[C@@H](N)CC(C)C)C(=O)NCC(=O)N[C@@H](CC(C)C)C(=O)N[C@H](C(=O)N[C@@H](CC(N)=O)C(=O)N[C@@H](CC(C)C)C(=O)N[C@@H](CC(C)C)C(=O)NCC(=O)N[C@@H](CC(C)C)C(=O)N[C@@H](CC(C)C)C(=O)O)[C@@H](C)O [Mammuthusin-4] (H-LFIGLTNLLGLL-OH) |  | 2000 mM (≈ 2570 mg/mL) |  |
| CC[C@H](C)[C@H](NC(=O)[C@@H]1CCCN1C(=O)[C@H](CC(N)=O)NC(=O)[C@@H]1CCCN1C(=O)[C@@H]1CCCN1C(=O)[C@H](CCCCN)NC(=O)[C@@H](N)CCCCN)C(=O)N[C@@H](CCCCN)C(=O)N1CCC[C@H]1C(=O)N[C@@H](CCCCN)C(=O)N[C@H](C(=O)N1CCC[C@H]1C(=O)N[C@@H](CC(C)C)C(=O)N[C@@H](CO)C(=O)N[C@@H](C)C(=O)N1CCC[C@H]1C(=O)N[C@@H](CCCNC(=N)N)C(=O)N[C@@H](CCCCN)C(=O)N[C@@H](CO)C(=O)N1CCC[C@H]1C(=O)N[C@@H](CC(N)=O)C(=O)N[C@H](C(=O)N[C@H](C(=O)N[C@@H](CCCCN)C(=O)N[C@@H](Cc1ccc(O)cc1)C(=O)N[C@@H](CCCNC(=N)N)C(=O)N[C@@H](CC(C)C)C(=O)N[C@@H](CCCCN)C(=O)N[C@@H](Cc1ccccc1)C(=O)N[C@@H](CCCNC(=N)N)C(=O)O)C(C)C)[C@@H](C)O)C(C)C [Mammuthusin-5] (H-KKPPNPIKPKVPLSAPRKSPNTVKYRLKFR-OH) |  | 32000 mM (≈ 112000 mg/mL) |  |
| CC[C@H](C)[C@H](NC(=O)[C@@H](NC(=O)[C@H](CCSC)NC(=O)[C@@H](N)Cc1c[nH]c2ccccc12)[C@@H](C)O)C(=O)N[C@@H](Cc1c[nH]cn1)C(=O)N[C@@H](C)C(=O)N[C@@H](CC(C)C)C(=O)N[C@@H](CCCCN)C(=O)N[C@@H](CC(C)C)C(=O)N[C@@H](CO)C(=O)N[C@@H](CC(C)C)C(=O)N[C@@H](CO)C(=O)N[C@@H](Cc1ccccc1)C(=O)N[C@@H](CCCCN)C(=O)N[C@@H](CC(C)C)C(=O)O [Mammutin-1] (H-WMTIHALKLSLSFKL-OH) |  | 2000 mM (≈ 3580 mg/mL) |  |
| CC[C@H](C)[C@H](NC(=O)[C@@H](N)CC(C)C)C(=O)N[C@H](C(=O)N[C@@H](CS)C(=O)N[C@@H](Cc1ccccc1)C(=O)N[C@@H](Cc1ccccc1)C(=O)N[C@@H](CCCNC(=N)N)C(=O)N[C@@H](CCC(N)=O)C(=O)N[C@@H](CC(C)C)C(=O)N[C@@H](CCCCN)C(=O)N[C@@H](Cc1ccccc1)C(=O)N[C@@H](Cc1c[nH]cn1)C(=O)N[C@@H](Cc1ccccc1)C(=O)O)C(C)C [Megalocerin-1] (H-LIVCFFRQLKFHF-OH) | 8 µmol/L | 8000 mM (≈ 13600 mg/mL) |  |
| CC[C@H](C)[C@H](NC(=O)[C@H](CCCCN)NC(=O)[C@H](CO)NC(=O)[C@H](CC(N)=O)NC(=O)[C@H](Cc1ccccc1)NC(=O)[C@H](Cc1c[nH]cn1)NC(=O)[C@H](Cc1ccccc1)NC(=O)[C@@H](N)Cc1c[nH]c2ccccc12)C(=O)N[C@@H](CC(C)C)C(=O)N[C@@H](CC(C)C)C(=O)N[C@@H](CC(C)C)C(=O)N[C@H](C(=O)NCC(=O)N[C@@H](CC(C)C)C(=O)O)[C@@H](C)O [Mylodonin-1] (H-WFHFNSKILLLTGL-OH) |  | 8000 mM (≈ 13500 mg/mL) |  |
| CC(C)C[C@H](NC(=O)CNC(=O)[C@H](CCCNC(=N)N)NC(=O)[C@H](CCCCN)NC(=O)[C@H](CCCNC(=N)N)NC(=O)[C@@H](N)CCCCN)C(=O)N[C@@H](CCCCN)C(=O)N[C@@H](CC(C)C)C(=O)N[C@@H](C)C(=O)N[C@H](C(=O)N[C@@H](C)C(=O)N[C@@H](CC(C)C)C(=O)N[C@@H](CO)C(=O)N[C@@H](CC(C)C)C(=O)N[C@@H](CC(N)=O)C(=O)N[C@@H](CC(N)=O)C(=O)N[C@@H](CCCCN)C(=O)N[C@@H](Cc1ccccc1)C(=O)O)[C@@H](C)O [Mylodonin-2] (H-KRKRGLKLATALSLNNKF-OH) | 64 µmol/L | 32000 mM (≈ 65900 mg/mL) |  |
| CC[C@H](C)[C@H](NC(=O)[C@H](CC(N)=O)NC(=O)[C@H](CC(C)C)NC(=O)[C@@H](NC(=O)[C@H](Cc1ccccc1)NC(=O)[C@@H]1CCCN1C(=O)[C@@H]1CCCN1C(=O)[C@@H](NC(=O)[C@H](CO)NC(=O)[C@H](CC(C)C)NC(=O)[C@H](CCCCN)NC(=O)[C@H](CCCCN)NC(=O)[C@H](Cc1ccc(O)cc1)NC(=O)[C@@H](NC(=O)[C@@H](N)CCCCN)[C@@H](C)CC)[C@@H](C)O)[C@@H](C)O)C(=O)N[C@@H](CCCNC(=N)N)C(=O)N[C@H](C(=O)N[C@@H](CC(C)C)C(=O)N1CCC[C@H]1C(=O)N[C@@H](CCCCN)C(=O)N[C@H](C(=O)N[C@@H](CCCCN)C(=O)N[C@@H](Cc1ccccc1)C(=O)N1CCC[C@H]1C(=O)N[C@@H](CCCCN)C(=O)O)C(C)C)[C@@H](C)O [Mylodonin-3] (H-KIYKKLSTPPFTLNIRTLPKVKFPK-OH) |  | 16000 mM (≈ 47300 mg/mL) |  |
| CC[C@H](C)[C@H](NC(=O)[C@H](CCCCN)NC(=O)[C@H](CC(C)C)NC(=O)[C@H](CCC(N)=O)NC(=O)[C@H](Cc1ccccc1)NC(=O)[C@@H](NC(=O)[C@@H](NC(=O)[C@H](Cc1ccccc1)NC(=O)[C@H](CC(C)C)NC(=O)[C@@H](NC(=O)[C@@H](N)CC(C)C)[C@@H](C)O)[C@@H](C)CC)[C@@H](C)CC)C(=O)N[C@@H](CO)C(=O)N[C@@H](CCCCN)C(=O)N[C@@H](CC(C)C)C(=O)O [Paleopropin-1] (H-LTLFIIFQLKISKL-OH) |  | 32000 mM (≈ 53700 mg/mL) |  |
| CC[C@H](C)[C@H](N)C(=O)N[C@@H](CC(C)C)C(=O)N[C@H](C(=O)N[C@@H](CC(C)C)C(=O)N[C@@H](Cc1ccccc1)C(=O)N[C@H](C(=O)N[C@H](C(=O)N[C@@H](Cc1ccccc1)C(=O)N[C@@H](CCC(N)=O)C(=O)N[C@@H](CC(C)C)C(=O)N[C@@H](CCCCN)C(=O)N[C@H](C(=O)N[C@@H](CO)C(=O)N[C@@H](CCCCN)C(=O)N[C@@H](CC(C)C)C(=O)O)[C@@H](C)CC)[C@@H](C)CC)[C@@H](C)CC)[C@@H](C)O [Paleopropin-2] (H-ILTLFIIFQLKISKL-OH) |  | 16000 mM (≈ 28600 mg/mL) |  |
| CC[C@H](C)[C@H](NC(=O)[C@H](Cc1ccccc1)NC(=O)[C@@H](N)CCCCN)C(=O)N[C@@H](CC(C)C)C(=O)N[C@@H](CC(N)=O)C(=O)N[C@@H](Cc1ccccc1)C(=O)N[C@@H](CCCCN)C(=O)N[C@H](C(=O)N1CCC[C@H]1C(=O)N[C@H](C(=O)N[C@@H](CO)C(=O)N[C@@H](Cc1ccccc1)C(=O)N[C@@H](CCCCN)C(=O)O)[C@@H](C)CC)[C@@H](C)CC [Pinguinusin-1] (H-KFILNFKIPISFK-OH) |  | 4000 mM (≈ 6380 mg/mL) |  |
| CC[C@H](C)[C@H](NC(=O)[C@H](CCCCN)NC(=O)[C@@H](NC(=O)[C@H](Cc1c[nH]c2ccccc12)NC(=O)[C@H](CCCCN)NC(=O)[C@@H](N)CCCCN)[C@@H](C)O)C(=O)N[C@@H](Cc1ccc(O)cc1)C(=O)N[C@@H](CO)C(=O)N1CCC[C@H]1C(=O)N[C@@H](CC(C)C)C(=O)N[C@@H](CO)C(=O)N[C@@H](CC(C)C)C(=O)O [Smilodin-1] (H-KKWTKIYSPLSL-OH) |  | 64000 mM (≈ 93700 mg/mL) |  |
| CC[C@H](C)[C@H](NC(=O)[C@@H](N)[C@@H](C)O)C(=O)N[C@@H](CCCCN)C(=O)N[C@@H](CC(C)C)C(=O)N[C@@H](Cc1ccccc1)C(=O)N[C@@H](CC(C)C)C(=O)N[C@@H](CO)C(=O)N[C@@H](Cc1ccccc1)C(=O)N[C@@H](CCCCN)C(=O)N[C@@H](CC(C)C)C(=O)O [Xenothrixin-1] (H-TIKLFLSFKL-OH) |  | 8000 mM (≈ 9680 mg/mL) |  |
| polymyxin B [reference compound] |  |  | 4-5 orders of magnitude |
